Measured values published in US12616663B2, “Plant-derived exosome-like nanoparticles inhibit bacterial pathogenicity” (priority 2019, dated 2026).

Experiments:
P. gingivalis [1] = assay: Bacterial growth, optical density at 600 nm; format: cell-based, Porphyromonas gingivalis
Experimental: Bacterial strain and growth condition. P. gingivalis 33277 was cultured in tryptic soy broth supplemented with yeast extract (1 mg/ml), hemin (5 μg/ml) and menadione (1 μg/ml) and incubated at 37° C. in anaerobic chamber (85% N2, 10% H2, 5% CO2). S. gordonii DL1 was cultured in brain-heart infusion broth media containing 0.5% yeast extract and incubated at anaerobically at 37° C.
Bacterial growth. […] P. gingivalis and S. gordonii growth was determined by measuring optical density at 600 nm.

[2] = tested on: P. gingivalis total cell lysates; assay: SPR: P. gingivalis total cell lysates run over immobilized liposomes; format: binding, Porphyromonas gingivalis; conditions: LIP-1 sensor, total cell lysates as analyte
Experimental: (§1) Liposome preparation. Total lipids from ginger exosome-like nanoparticles (GELNs) were extracted with chloroform:methanol (2:1, v/v). Thin layer chromatography (TLC) was performed with standard PA(34:2). The corresponding PA band was excised from the TLC plate and remaining bands were pool together. GELNs total lipids, PA depleted lipids and PA(34:2) were completely dried under stream of nitrogen gas. The lipid film was suspended in HEPES-buffered saline (HBS) running buffer (20 mM HEPES, 150 mM NaCl, pH 7.4) and gently vortexed and sonicated for 10 minutes until clear solution was formed. The liposome suspension was extruded through a poly carbonated membrane filter syringe with pore size of 100 nm. The size of liposome was confirmed by NanoSight NS300 (Malvern Panalytical Inc, MA, USA). Total lipids were determined by measuring total phosphate levels.
Surface Plasmon Resonance (SPR). SPR experiments were conducted on an OPENSPR™ (Nicoya, Lifesciences, ON, CA). All experiments were carried on LIP-1 sensor (Nicoya, Lifesciences). Tests were run at flow rate of 20 μl/minute using HBS running buffer (20 mM HEPES, 150 mM NaCl, pH 7.4). First, LIP-1 sensor chip was cleaned with Octyl 0-D-glucopyranoside (40 mM) and CHAPS (20 mM). […] The sensograms were analyzed using TRACEDRAWER™ brand kinetic Analysis software. […]

[3] = tested on: HBP35 synthetic peptide (functional domain of hemin binding protein 35); assay: SPR: HBP35 synthetic peptide as analyte over immobilized liposomes; set-up: species or system Porphyromonas gingivalis; conditions: liposomes immobilized on LIP-1 sensor; non-specific peptide as negative control
Experimental: as §1, with “The size of liposome was confirmed by NanoSight NS300 (Malvern Panalytical Inc, MA, USA).” left out
Surface Plasmon Resonance (SPR). […] The sensograms were analyzed using TRACEDRAWER™ brand kinetic Analysis software.
Whether the HBP35 synthetic peptide directly bound to PA (34:2) and/or PA (34:1) of GELNs lipids was also tested. […] The lipid-protein interactions were determined by SPR sensograms. Fluorescent confocal micrographs of P. gingivalis labelled with PKH67 (green fluorescence) and GELNs and LipidG liposomes were labelled with PKH26 (red fluorescence). […] Particles and liposomes taken up by P. gingivalis were also quantified by flow cytometry. […]

[4] = tested on: arginine-specific (Rgp) gingipain; assay: Gingipain proteolytic activity (N-benzoyl-L-arginine-pNA); format: cell-based, Porphyromonas gingivalis; conditions: GELNs and GELN lipids 2×10^8 and 4×10^8 particles/ml vs PBS control; PA(34:2), aly-miR159a vs control
Experimental: Gingipain proteolytic activity. The proteolytic activity of arginine-specific (Rgp) and lysine specific (Kgp) gingipain was measured. P. gingivalis was cultured to mid-log phase and treated with and without GELNs (2.0-4.0×10^8 particles/ml) for 6 hour. The bacterial cells were collected by centrifugation at 5000 g for 10 minutes, washed, and lysed with BUGBUSTER® brand lysis reagent (Millipore Sigma, Burlington, MA, USA). The chromogenic p-nitroanilide substrates N-benzoyl-L-arginine-pNA or toluenesulfonyl-glycyl-prolyl-L-lysine-pNA (Sigma) were used to measure RgpA/B and Kgp respectively. Bacterial cell lysates (50 μl) were pre-incubated with assay buffer containing 200 mM Tris-HCl, 5 mM CaCl2/150 mM NaCl and supplemented with 10 mM cysteine in 96-well plate, incubated at 37° C. for 10 minutes, and 0.5 mM of specific substrate was added to each well. The rate of substrate hydrolysis and accumulation of p-nitroanillide was monitored spectrophotometrically at 405 nm. The enzyme activity was calculated and given as mOD/min/μl.

[5] = target: T1, lysine specific (Kgp) gingipain (Porphyromonas gingivalis, UniProt B2RLK2); format: cell-based; conditions: GELNs and GELN lipids 2×10^8 and 4×10^8 particles/ml vs PBS control; PA(34:2), aly-miR159a vs control
T1 construct: endogenous in cells; host or cells: Porphyromonas gingivalis, BugBuster lysate of treated bacteria

[6] = tested on: AraC transcription factor mRNA; format: cell-based, Porphyromonas gingivalis
hemagglutinin (HA) mRNA = format: cell-based, Porphyromonas gingivalis
[7] = tested on: outer membrane protein (OMP) mRNA; format: cell-based, Porphyromonas gingivalis
[8] = tested on: rod shape determining protein (RodA) mRNA; format: cell-based, Porphyromonas gingivalis
P. gingivalis [9] = assay: Gliding motility in U shaped glass tube with 0.2% agar; format: cell-based, Porphyromonas gingivalis; conditions: GELNs 4.0×10^8 particles/ml, PA (34:2) 5 μg/ml vs PBS; miRNAs vs scrambled miRNA; 48 hours
Experimental: Gliding motility. Gliding motility of P. gingivalis was measured. P. gingivalis was reacted with GELNs (4×10^8 particles/ml) or total lipids extracted from GELNs or miRNAs such as aly-miR-159a-3p, gma-miR166u, and gma-miR166p. A sterile “U” shaped glass tube containing 0.2% agar as suspension medium was produced. P. gingivalis (100 μl) was inoculated one edge of the tube and incubated at anaerobic chamber for 48 hours, the location of bacteria was visualized by cloudiness, and distance movement of P. gingivalis was calculated.
Transferring gingipain from intracellular locations to the cell surface is a critical step in the pathogenesis of P. gingivalis. Gingipains are synthesized with an N-terminal signal peptide targeting them to the Sec translocon where they are exported through the outer-membranes via a novel secretion system referred to as type IX Secretion System (T9SS). T9SS plays a critical role in bacterial gliding motility that could contribute to P. gingivalis pathogenesis. Therefore, it was determined whether GELNs, GELN-derived miRNAs, and/or GELN lipids could play a role in inhibition of gliding motility of P. gingivalis. P. gingivalis were pretreated with GELNs (4.0×10^8 particles/ml) or PA (34:2; 5 μg/ml) or transduced with GELN-derived aly-miR159a, gma-miR166u, or gma-miR166p. […]

[10] = tested on: T9SS family members porK, porL, porM, porN, porP, porQ, porT, porV, porW, porX, porY, and sov; assay: qPCR of T9SS family member expression; format: cell-based, Porphyromonas gingivalis; conditions: GELNs 4.0×10^8 particles/ml, lipids from 4.0×10^8 particles, 5 μg PA (34:2) 6 hours; miRNAs 24 hours vs scrambled
Experimental: (§2) RNA isolation and quantitative real time PCR (qRT-PCR). Total RNA was isolated from P. gingivalis and TIGK cells using TRIZOL™ brand reagent according to the manufacturer's protocol (Invitrogen). RNA (1 μg) was converted into cDNA with ISCRIPT™ brand cDNA synthesis kit (Bio-Rad, Hercules, California, United States of America). qRT-PCR was performed for quantification of gene expression, cDNA samples were amplified with SSOFAST™ EVAGREEN® Supermix brand qRT-PCR cocktail in CFX96 Real-time PCR system (Bio-Rad). The mRNA expression was quantified by ΔΔCt method using 16S rRNA expression as an internal control for bacterial gene expression.
To further determine the molecular mechanisms underlying GELN-mediated inhibition of P. gingivalis gliding motility, the roles of GELNs, GELNs lipids, and GELN-derived miRNAs in modulating the expression of genes related to T9SS were determined. P. gingivalis was treated with GELNs (4.0×10^8 particles/ml) and GELNs lipids derived from 4.0×10^8 particles and 5 μg of PA (34:2) for 6 hours, and miRNAs aly-miR159a, gma-miR166u, and gma-miR166p were transduced into P. gingivalis by incubation for 24 hours. […] Further, it was determined that aly-miR159a-3p has potential binding sites in the T9SS C-terminal target domain containing protein PGN_0152; see FIG. 8H).

[11] = tested on: P. gingivalis attachment to TIGK cells; assay: Attachment of P. gingivalis to epithelial cells (ELISA, confocal microscopy); format: cell-based, Porphyromonas gingivalis; human TIGK cells; conditions: GELNs vs PBS; total lipids (from 4.0×10^8 particles), 50 nM PA (34:2) vs DMSO; miRNAs vs scrambled control
Experimental: Culture of TIGK cells. Human telomerase immortalized keratinocytes (TIGKs) derived from gingival epithelium were obtained from Dr. Lamont Laboratory and maintained at 37° C. and 5% CO2 in DERMALIFE®-K brand serum free culture medium (Lifeline Cell Technology, Carlsbad, California, United States of America).
Attachment to epithelial cells. The amount of P. gingivalis attachment to the surface of gingival epithelial cells were determined. Briefly, telomerase immortalized gingival keratinocytes (TIGKs), derived from primary gingival epithelial cell lines, were cultured in 96-well plates for 24 hours. Then, the cells were fixed with 5% buffered formalin for 1 hour, and washed with PBS. […] Cells were washed with PBS to remove non-adherent bacteria. Then, wells were incubated with P. gingivalis whole-cell antibodies (1:10,000) at 37° C. for 1 hour, then washed with PBS. Binding was detected with a secondary horse radish peroxidase (HRP)-anti-rabbit antibody (1:5,000) and 3,3′,5,5′-tetramethylbenzidine substrate (Sigma), and recorded at 450 nm.
Then, the TIGK cells were fixed with 5% buffered formalin for 10 minutes. P. gingivalis cells were stained with an antibody raised against P. gingivalis (1:1000 dilution) incubated for 3 hour at room temperature. After extensive washing with PBS, cells were incubated with ALEXAFLUOR® 568-conjugated IgG (1:5000 dilution) for 1 hour at room temperature. […]

fimbrillin (fimA) = assay: fimA expression (real-time PCR, western blot); format: cell-based, Porphyromonas gingivalis; conditions: GELNs, total lipids or PA (34:2) 6 hours vs DMSO
Experimental: as §2

[12] = tested on: P. gingivalis invasion into TIGK cells; assay: P. gingivalis invasion, antibiotic protection assay (CFU); format: cell-based, Porphyromonas gingivalis; human TIGK cells; conditions: GELNs total lipids or PA (34:2) vs DMSO control; miRNA-transduced bacteria

Compound | concentration at which P. gingivalis growth was inhibited (P. gingivalis [1]; 0-50 μg/ml tested, 24 hours, very low concentration compared to other lipid compounds) [µg/mL] | interaction of P. gingivalis proteins with immobilized nanoparticles (SPR sensograms) [2] | direct interaction with HBP35 synthetic peptide (SPR sensogram peaks) [3] | arginine-specific (Rgp) gingipain activity [4] | lysine-specific (Kgp) gingipain activity [5] | AraC mRNA expression [6] | hemagglutinin (HA) mRNA expression (hemagglutinin (HA) mRNA) | outer membrane protein (OMP) mRNA expression [7] | RodA mRNA expression [8] | gliding motility of P. gingivalis (P. gingivalis [9]) | T9SS family members whose expression was significantly inhibited [10] | surface attachment of P. gingivalis to TIGK cells (ELISA) [11] | fimA expression (mRNA and protein levels) (fimbrillin (fimA)) | P. gingivalis invasion into TIGK cells [12] | blocking of GELN lipid-mediated inhibition of P. gingivalis growth (P. gingivalis [1]; GELN total lipids (4.0 and 6.0×10^8 particles) pre-incubated with peptide) | blocking of PA-mediated inhibition of P. gingivalis growth (P. gingivalis [1]; PA (34:2) pre-incubated with peptide)
CCCCC/C=C\C/C=C\CCCCCCCC(=O)O[C@H](COC(=O)CCCCCCCCCCCCCCC)COP(=O)(O)O [PA (34:2), 1-palmitoyl-2-linoleoyl-sn-glycero-3-phosphate] | 5 | able to interact | directly interacted | contributed to inhibit | contributed to inhibit | inhibited | not significant | inhibited | inhibited | significantly inhibited the motility | 9/12 | significantly inhibited surface attachment | significantly decreased | significant decrease | – | –
WPRVGQLFIALDQTLGIPGFPTFSVCRME [HBP35 synthetic peptide] | – | – | – | – | – | – | – | – | – | – | – | – | – | – | significantly blocked | significantly blocked
